Experimental data reported in US10221139B2, “Inhibitors of histone demethylases” (Gilead Sciences, Inc., priority 2012, dated 2019).
pIC50: −log10 of the molar value.

Columns and labels:
Assay type in all cases: biochemical
[1] = target: T1, JMJD1B (KDM3B) (Homo sapiens, UniProt Q7LBC6); assay: Histone lysine demethylase AlphaLISA assay, JMJD1B; conditions: substrate BK9M2
T1 construct: 842-1761; host or cells: Bac (baculovirus)
T1 sequence (Q7LBC6 842-1761): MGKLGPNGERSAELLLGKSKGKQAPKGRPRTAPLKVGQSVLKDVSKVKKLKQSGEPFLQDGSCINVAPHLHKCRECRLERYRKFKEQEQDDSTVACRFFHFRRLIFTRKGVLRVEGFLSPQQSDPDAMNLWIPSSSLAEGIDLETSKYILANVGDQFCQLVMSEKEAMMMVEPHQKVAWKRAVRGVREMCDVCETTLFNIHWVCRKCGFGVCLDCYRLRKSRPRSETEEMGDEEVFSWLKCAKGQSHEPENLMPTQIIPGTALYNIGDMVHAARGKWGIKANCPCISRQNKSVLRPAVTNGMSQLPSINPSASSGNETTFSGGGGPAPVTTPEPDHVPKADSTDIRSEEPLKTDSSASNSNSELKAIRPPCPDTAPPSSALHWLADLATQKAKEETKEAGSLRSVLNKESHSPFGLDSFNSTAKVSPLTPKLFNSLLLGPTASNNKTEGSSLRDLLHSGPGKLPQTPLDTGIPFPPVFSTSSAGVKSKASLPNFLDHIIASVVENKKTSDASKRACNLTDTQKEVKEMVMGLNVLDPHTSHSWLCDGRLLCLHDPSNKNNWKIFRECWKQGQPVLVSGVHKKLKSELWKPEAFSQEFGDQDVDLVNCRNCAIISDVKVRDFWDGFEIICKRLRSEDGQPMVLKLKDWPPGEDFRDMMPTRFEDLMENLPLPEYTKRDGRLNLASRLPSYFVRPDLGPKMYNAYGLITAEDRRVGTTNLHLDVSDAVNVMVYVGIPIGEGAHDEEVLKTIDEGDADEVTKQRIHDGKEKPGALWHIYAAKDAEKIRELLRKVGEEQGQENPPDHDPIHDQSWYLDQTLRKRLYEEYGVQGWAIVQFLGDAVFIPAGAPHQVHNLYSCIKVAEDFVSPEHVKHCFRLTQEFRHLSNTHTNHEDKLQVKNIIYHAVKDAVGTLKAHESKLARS
Experimental: (§1) Example 2: Histone Lysine Demethylase AlphaLISA Assays for IC50 Value Determination
(§2) Assays are performed analogously to the protocol described by Perkin Elmer (Roy et al. Perkin Elmer Technical Note: AlphaLISA #12, April 2011).
(§3) Enzymes are dissolved in enzyme buffer and incubated for 10 min before 5 μL is added to 5 μL 3% DMSO solutions of compounds in enzyme buffer. Incubated for another 10 minutes, before 5 μL substrate solution is added and the reaction mixture is incubated at room temperature for the given period. 10 μL acceptor beads, suspended at given dilutions in Epigenetic Buffer (Perkin Elmer AL008) from stock, are added and the suspension is incubated 60 minutes in the dark at room temperature, before 10 μL suspension (at the given dilutions in Epigenetic Buffer) of streptavidin donor beads (Perkin Elmer 6760002) in Epigenetic Buffer is added. After incubation at room temperature in the dark the plates are read. Reaction conditions are seen in Table 2b.

[2] = target: T2, GASC1 (KDM4C, JMJD2C) (Homo sapiens, UniProt Q9H3R0); assay: Histone lysine demethylase AlphaLISA assay, GASC1; conditions: substrate BK9M3
T2 construct: 1-349; host or cells: E. coli
T2 sequence (Q9H3R0 1-349): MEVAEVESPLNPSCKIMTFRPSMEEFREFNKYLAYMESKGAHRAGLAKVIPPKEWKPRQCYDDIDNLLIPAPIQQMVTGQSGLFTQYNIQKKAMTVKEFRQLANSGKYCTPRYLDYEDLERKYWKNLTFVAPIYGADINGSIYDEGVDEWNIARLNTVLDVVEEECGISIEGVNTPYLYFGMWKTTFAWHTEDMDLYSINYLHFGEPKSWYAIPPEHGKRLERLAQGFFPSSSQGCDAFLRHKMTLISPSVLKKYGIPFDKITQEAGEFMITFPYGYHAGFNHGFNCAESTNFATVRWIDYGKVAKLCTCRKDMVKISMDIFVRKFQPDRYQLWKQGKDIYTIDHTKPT
Procedure, shortened: (§4)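 IC50 values come from an AlphaLISA signal: acceptor beads incubated 60 min in the dark, then streptavidin donor beads, both at room temperature. Beforehand, enzyme and compound were preincubated 10 min and the substrate reaction ran at room temperature.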

[3] = target: T3, UTX (KDM6A) (Homo sapiens, UniProt O15550); assay: Histone lysine demethylase AlphaLISA assay, UTX; conditions: substrate BK27M3
T3 construct: 919-1401; host or cells: E. coli
Procedure, shortened: as §4

[4] = target: T4, JMJD2B (KDM4B) (Homo sapiens, UniProt O94953); assay: Histone lysine demethylase AlphaLISA assay, JMJD2B; conditions: substrate BK9M3, read-out: JMUD2B IC50
T4 construct: 2-500; purchased BPS; host or cells: Bac (baculovirus)
T4 sequence (O94953 2-500): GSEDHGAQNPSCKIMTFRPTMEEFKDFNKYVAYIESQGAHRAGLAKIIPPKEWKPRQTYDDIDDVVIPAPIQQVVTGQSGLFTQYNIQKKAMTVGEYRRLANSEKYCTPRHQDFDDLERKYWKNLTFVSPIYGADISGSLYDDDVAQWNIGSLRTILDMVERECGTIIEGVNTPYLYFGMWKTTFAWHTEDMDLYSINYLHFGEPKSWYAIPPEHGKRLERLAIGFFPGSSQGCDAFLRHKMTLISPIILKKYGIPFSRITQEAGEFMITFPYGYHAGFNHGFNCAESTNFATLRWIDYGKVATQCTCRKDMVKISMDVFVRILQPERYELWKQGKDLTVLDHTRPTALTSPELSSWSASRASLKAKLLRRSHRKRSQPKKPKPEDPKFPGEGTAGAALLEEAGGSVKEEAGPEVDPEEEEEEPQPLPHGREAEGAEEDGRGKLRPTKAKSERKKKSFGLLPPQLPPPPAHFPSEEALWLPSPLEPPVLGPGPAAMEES
Experimental: as §1, §2, §3

[5] = target: T5, JMJD3 (KDM6B) (Homo sapiens, UniProt O15054); assay: Histone lysine demethylase AlphaLISA assay, JMJD3; conditions: substrate BK27M3
T5 construct: 1043-end; purchased BPS; host or cells: Bac (baculovirus)
Experimental: as §1, §2, §3

[6] = target: T6, JMJD2A (KDM4A) (Homo sapiens, UniProt O75164); assay: Histone lysine demethylase AlphaLISA assay, JMJD2A; conditions: substrate BK9M3
T6 construct: 1-350; purchased BPS, Bioscience, US; host or cells: E. coli
T6 sequence (O75164 1-350): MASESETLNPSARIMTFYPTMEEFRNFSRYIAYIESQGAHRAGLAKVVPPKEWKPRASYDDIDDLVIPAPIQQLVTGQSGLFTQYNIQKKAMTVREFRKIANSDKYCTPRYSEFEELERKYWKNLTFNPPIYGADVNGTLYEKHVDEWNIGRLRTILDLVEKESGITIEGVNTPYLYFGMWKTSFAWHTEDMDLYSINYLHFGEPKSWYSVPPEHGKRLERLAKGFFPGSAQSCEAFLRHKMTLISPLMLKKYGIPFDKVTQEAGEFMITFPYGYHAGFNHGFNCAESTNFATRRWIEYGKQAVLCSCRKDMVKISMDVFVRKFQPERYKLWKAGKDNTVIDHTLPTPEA
Experimental: as §1, §2, §3

[7] = target: T7, PLU1 (KDM5B) (Homo sapiens, UniProt Q9UGL1); assay: Histone lysine demethylase AlphaLISA assay, PLU1; conditions: substrate H3K4M3B
T7 construct: 1-809; host or cells: E. coli
T7 sequence (Q9UGL1 1-809): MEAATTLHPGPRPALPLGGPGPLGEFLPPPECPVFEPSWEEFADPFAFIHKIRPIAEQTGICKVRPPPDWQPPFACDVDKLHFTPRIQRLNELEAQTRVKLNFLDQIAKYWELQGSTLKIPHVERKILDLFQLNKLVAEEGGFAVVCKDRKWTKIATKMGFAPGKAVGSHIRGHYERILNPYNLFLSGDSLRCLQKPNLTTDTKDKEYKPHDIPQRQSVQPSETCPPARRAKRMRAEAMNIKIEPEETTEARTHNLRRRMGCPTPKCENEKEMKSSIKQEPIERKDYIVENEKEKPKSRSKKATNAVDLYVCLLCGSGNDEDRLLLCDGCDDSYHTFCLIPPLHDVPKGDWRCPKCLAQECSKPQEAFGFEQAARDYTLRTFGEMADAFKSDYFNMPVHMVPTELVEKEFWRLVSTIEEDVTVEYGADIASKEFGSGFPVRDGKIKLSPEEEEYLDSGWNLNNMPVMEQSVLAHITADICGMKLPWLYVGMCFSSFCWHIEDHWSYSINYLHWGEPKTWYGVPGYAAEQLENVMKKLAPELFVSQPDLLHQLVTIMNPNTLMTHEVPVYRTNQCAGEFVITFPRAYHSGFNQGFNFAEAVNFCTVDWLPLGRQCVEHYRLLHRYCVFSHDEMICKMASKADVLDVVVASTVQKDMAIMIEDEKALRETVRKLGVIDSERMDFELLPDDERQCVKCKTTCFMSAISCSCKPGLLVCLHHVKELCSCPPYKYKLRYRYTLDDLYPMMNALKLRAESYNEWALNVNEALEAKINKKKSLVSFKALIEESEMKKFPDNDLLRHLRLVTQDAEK
Procedure, shortened: as §4

[8] = target: T8, PHF8 (KDM7) (Homo sapiens, UniProt Q9UPP1); assay: Histone lysine demethylase AlphaLISA assay, PHF8; conditions: substrate BK9M2
T8 construct: KDM7 (PHF8); BRIC; 1-1322; Bac
Experimental: as §1, §2, §3

[9] = target: T9, JARID1C (KDM5C) (Homo sapiens, UniProt P41229); assay: Histone lysine demethylase AlphaLISA assay, JARID1C; conditions: substrate H3K4M3B
T9 construct: 2-1560; purchased BPS; host or cells: Bac (baculovirus)
Experimental: as §1, §2, §3

[10] = target: T10, FBXL10 (KDM2B) (Homo sapiens, UniProt Q8NHM5); assay: Histone lysine demethylase AlphaLISA assay, FBXL10; conditions: substrate BH3K36M2
T10 construct: 1-650; purchased BPS, Bioscience, US; host or cells: Bac (baculovirus)
T10 sequence (Q8NHM5 1-650): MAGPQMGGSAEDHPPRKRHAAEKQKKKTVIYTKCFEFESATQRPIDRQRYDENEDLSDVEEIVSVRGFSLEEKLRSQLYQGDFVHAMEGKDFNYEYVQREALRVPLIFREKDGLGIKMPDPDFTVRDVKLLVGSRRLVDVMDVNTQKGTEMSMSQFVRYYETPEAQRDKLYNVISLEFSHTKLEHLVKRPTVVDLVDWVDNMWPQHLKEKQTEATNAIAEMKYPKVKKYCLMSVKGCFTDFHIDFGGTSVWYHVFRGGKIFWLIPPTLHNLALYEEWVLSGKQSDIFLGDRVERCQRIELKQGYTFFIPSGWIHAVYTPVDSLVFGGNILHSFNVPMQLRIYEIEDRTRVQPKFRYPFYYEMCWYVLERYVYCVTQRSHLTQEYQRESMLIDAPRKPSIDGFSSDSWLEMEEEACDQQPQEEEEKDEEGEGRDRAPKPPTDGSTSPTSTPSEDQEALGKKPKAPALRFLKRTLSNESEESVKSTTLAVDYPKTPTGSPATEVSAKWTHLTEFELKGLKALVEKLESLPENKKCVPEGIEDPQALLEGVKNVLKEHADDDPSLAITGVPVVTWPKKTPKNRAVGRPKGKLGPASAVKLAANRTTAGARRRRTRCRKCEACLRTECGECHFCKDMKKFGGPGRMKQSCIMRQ
Experimental: as §1, §2, §3

T5 sequence (O15054 1043-1682 isoform O15054-1 limits assumed): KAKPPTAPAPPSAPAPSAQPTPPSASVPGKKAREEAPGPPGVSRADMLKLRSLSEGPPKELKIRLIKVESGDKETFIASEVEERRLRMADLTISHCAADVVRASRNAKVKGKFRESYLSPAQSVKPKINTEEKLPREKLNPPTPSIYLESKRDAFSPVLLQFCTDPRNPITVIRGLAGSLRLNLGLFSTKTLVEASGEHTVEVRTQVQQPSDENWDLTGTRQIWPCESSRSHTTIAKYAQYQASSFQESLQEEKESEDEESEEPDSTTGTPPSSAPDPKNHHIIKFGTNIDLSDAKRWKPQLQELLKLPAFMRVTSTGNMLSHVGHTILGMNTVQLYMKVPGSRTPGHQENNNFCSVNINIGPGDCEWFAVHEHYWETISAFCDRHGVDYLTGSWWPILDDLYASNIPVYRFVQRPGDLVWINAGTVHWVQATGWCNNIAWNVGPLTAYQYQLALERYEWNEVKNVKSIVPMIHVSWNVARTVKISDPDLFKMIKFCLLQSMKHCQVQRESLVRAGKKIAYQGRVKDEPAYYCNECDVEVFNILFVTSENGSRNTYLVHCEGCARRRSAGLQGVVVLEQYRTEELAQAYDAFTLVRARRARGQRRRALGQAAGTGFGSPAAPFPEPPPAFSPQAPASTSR
T3 sequence (O15550 919-1401): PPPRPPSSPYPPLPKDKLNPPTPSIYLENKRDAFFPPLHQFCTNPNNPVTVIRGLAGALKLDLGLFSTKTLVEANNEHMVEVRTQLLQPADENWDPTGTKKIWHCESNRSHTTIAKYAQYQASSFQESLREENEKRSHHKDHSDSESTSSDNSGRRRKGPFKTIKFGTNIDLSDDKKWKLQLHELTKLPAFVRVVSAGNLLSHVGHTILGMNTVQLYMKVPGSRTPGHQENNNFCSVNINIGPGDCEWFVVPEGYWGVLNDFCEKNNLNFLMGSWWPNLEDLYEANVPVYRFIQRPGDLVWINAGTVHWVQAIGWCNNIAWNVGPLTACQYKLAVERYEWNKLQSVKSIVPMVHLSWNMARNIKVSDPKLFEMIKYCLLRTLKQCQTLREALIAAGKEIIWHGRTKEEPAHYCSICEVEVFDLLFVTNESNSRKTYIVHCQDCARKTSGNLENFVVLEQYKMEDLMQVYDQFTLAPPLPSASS
T9 sequence (P41229 2-1560): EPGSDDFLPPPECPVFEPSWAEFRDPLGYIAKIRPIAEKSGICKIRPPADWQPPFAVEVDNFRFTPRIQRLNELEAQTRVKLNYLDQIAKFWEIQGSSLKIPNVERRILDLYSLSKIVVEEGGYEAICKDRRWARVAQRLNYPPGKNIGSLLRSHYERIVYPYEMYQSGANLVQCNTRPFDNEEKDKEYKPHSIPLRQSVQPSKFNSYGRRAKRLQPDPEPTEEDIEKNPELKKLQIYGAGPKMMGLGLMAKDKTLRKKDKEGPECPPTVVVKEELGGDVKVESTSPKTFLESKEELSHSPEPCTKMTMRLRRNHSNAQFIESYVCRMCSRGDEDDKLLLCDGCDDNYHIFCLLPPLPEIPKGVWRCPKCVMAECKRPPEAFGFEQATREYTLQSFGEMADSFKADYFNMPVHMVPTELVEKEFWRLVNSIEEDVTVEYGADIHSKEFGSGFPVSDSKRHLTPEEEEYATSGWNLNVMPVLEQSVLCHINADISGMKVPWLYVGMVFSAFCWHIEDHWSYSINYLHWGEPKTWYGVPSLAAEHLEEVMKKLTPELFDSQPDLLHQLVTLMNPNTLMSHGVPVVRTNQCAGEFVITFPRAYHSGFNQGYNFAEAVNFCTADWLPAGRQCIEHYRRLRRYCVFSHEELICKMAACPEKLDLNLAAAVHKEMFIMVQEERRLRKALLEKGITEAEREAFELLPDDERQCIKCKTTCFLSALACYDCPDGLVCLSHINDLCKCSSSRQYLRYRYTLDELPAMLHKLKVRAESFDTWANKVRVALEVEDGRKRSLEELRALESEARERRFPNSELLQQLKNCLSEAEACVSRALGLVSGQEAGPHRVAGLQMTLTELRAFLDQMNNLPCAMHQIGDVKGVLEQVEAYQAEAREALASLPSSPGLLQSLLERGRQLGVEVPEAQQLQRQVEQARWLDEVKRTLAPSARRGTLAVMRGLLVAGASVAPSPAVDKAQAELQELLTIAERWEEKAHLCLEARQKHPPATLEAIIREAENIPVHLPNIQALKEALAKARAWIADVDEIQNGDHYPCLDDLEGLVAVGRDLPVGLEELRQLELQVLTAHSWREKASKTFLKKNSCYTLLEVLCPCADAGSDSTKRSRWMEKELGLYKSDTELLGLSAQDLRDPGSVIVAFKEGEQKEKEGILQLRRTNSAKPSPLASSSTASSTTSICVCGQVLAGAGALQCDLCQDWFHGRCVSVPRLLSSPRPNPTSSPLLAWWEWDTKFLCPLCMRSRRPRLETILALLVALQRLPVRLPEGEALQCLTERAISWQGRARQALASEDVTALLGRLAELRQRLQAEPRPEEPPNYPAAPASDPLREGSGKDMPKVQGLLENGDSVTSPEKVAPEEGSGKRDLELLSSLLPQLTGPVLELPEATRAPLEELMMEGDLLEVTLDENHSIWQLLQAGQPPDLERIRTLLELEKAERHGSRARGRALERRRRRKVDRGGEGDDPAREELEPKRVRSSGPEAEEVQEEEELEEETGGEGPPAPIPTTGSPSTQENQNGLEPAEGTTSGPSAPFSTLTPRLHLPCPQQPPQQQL
T8 sequence (Q9UPP1 37-477 limits assumed): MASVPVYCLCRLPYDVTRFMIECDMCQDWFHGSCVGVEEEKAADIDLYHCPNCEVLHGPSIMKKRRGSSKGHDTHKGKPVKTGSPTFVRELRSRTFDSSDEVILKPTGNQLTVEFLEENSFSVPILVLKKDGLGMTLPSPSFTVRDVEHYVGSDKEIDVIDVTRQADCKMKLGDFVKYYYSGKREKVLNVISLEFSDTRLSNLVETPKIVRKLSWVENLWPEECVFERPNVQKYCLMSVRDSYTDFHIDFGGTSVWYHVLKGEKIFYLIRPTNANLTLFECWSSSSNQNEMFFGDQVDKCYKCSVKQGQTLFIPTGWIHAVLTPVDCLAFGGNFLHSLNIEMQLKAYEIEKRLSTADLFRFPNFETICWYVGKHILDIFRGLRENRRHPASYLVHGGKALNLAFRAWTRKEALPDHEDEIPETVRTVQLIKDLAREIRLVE

pIC50 [1] | pIC50 [2] | pIC50 [3] | pIC50 [4] | pIC50 [5] | pIC50 [6] | pIC50 [7] | pIC50 [8] | pIC50 [9] | pIC50 [10] | SMILES
≤ 6.00 | > 7.00 | ≤ 6.00 | > 7.00 | ≤ 6.00 | > 7.00 | – | – | – | – | CN(C)CCNCc1cc(C(=O)O)ccn1 [#2, 2-({[2-(dimethylamino)ethyl]amino}methyl)pyridine-4-carboxylic acid]
– | 6.00 to 7.00 | ≤ 6.00 | > 7.00 | ≤ 6.00 | 6.00 to 7.00 | > 7.00 | ≤ 6.00 | > 7.00 | – | O=C(O)c1ccnc(CNCCCN2CCCC2)c1 [#46, 2-({[3-(pyrrolidin-1-yl)propyl]amino}methyl)pyridine-4-carboxylic acid]
≤ 6.00 | ≤ 6.00 | ≤ 6.00 | ≤ 6.00 | ≤ 6.00 | ≤ 6.00 | > 7.00 | – | – | – | COc1ccc(CNCc2cc(C(=O)O)ccn2)c(OC)c1 [#11, 2-({[(2,4-dimethoxyphenyl)methyl]amino}methyl)pyridine-4-carboxylic acid]
≤ 6.00 | > 7.00 | – | > 7.00 | – | > 7.00 | – | 6.00 to 7.00 | > 7.00 | > 7.00 | CN(CCCCN(Cc1ccccc1)C1CC1)C(=O)CNCc1cc(C(=O)O)ccn1 [#44, 2-({[({4-[benzyl(cyclopropyl)amino]butyl}(methyl)carbamoyl)methyl]amino}methyl)pyridine-4-carboxylic acid]
≤ 6.00 | ≤ 6.00 | ≤ 6.00 | 6.00 to 7.00 | ≤ 6.00 | 6.00 to 7.00 | – | ≤ 6.00 | – | ≤ 6.00 | O=C(O)c1ccnc(CN[C@@H]2CCN(CCCc3ccccc3)C2)c1 [#28, 2-({[(3R)-1-(3-phenylpropyl)pyrrolidin-3-yl]amino}methyl)pyridine-4-carboxylic acid]
– | > 7.00 | ≤ 6.00 | > 7.00 | ≤ 6.00 | ≤ 6.00 | > 7.00 | ≤ 6.00 | > 7.00 | – | CCN(CC)CCCCNCc1cc(C(=O)O)ccn1 [#48, 2-({[4-(diethylamino)butyl]amino}methyl)pyridine-4-carboxylic acid]
– | 6.00 to 7.00 | ≤ 6.00 | > 7.00 | ≤ 6.00 | > 7.00 | > 7.00 | – | > 7.00 | – | Cn1c(CNCc2cc(C(=O)O)ccn2)nc2ccccc21 [#15, 2-({[(1-methyl-1H-1,3-benzodiazol-2-yl)methyl]amino}methyl)pyridine-4-carboxylic acid]
